Measurements as given in US20160106439A1, “PNEUMATIC TOURNIQUET” (BIONUMERIK PHARMACEUTICALS, INC., priority 2013, published 2016).
Entries after “also recorded” stand apart in the source; their conditions may differ. Like-named read-outs stand apart in the source and are kept apart here.

Tests used:
RNR subunit 1 = RNR subunit 1 (Homo sapiens, UniProt P23921); assay: Whole protein MS of RNR subunit 1; format: binding; conditions: whole protein Mass Spectroscopy
Text: RNR1 contains a total of sixteen (16) cysteine residues and at least five (5) of these cysteine residues are required for catalysis, including: Cys218, Cys429, Cys444, Cys787, and Cys790. It is hypothesized that the Tavocept-derived mesna adducts identified on the RNR1 protein using whole protein Mass Spectroscopy (see, FIG. 49) may alter or modulate RNR activity.

[1] = system: bovine brain microtubule protein (α-/β-tubulin); assay: Microtubule protein polymerization assay (OD350) and electron microscopy; format: biochemical
thioredoxin = molecular target: T1, thioredoxin (Homo sapiens, UniProt P10599); assay: LC-MS of thioredoxin incubations; format: binding; conditions: ion at m/z 1288.3
T1 construct: purchased Sigma (SigmaAldrich); host or cells: E. coli

WT EGFR kinase = WT EGFR kinase (Homo sapiens, UniProt P00533); assay: WT EGFR kinase assay (ADP-glo)
[2] = molecular target: T2, E13K, D16K, E95K, E103K Thioredoxin (Homo sapiens, UniProt P10599, D16K/E103K/E13K/E95K); assay: X-ray crystallography of Tavocept-derived mesna adduct on Trx; format: binding; conditions: 40 mM Tavocept
T2 construct: made in house; host or cells: E. coli BL21(DE3), pET-15b system
T2 sequence (P10599 1-105 E13K/D16K/E95K/E103K): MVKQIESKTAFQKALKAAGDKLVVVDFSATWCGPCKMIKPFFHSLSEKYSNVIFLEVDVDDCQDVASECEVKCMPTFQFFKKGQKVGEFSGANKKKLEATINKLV
Description: Adduct was prepared as described above with some modifications designed to increase the likelihood of success in crystallization of the protein. […] This reaction was incubated for 1 hour at 30° C. followed by overnight incubation at 4° C. […] Aliquots of this solution were analyzed by ESI LC-MS to confirm the presence of adduct(s) prior to initiation of crystallization experiments.
These initial broad screens produced crystals under a wide range of conditions (data not shown) and the screens used included: (i) PEGION, CRYSTALS HT, and PEGRX (Hampton Research) and (ii) JCSG and BASIC (JENA Biosciences). Multiple rounds of optimization were completed and included fine screens, varying the protein concentration and varying the protein to reservoir ratios to obtain diffraction quality crystals. In the Trx pH 9.0/8.5 structure (adduct formed at pH 9.0, crystals grown at pH 8.5), the best crystals were obtained in 20% ethanol, 0.1 M Tris (at 60 mg/mL Trx protein) and diffracted to 2.5 Å (C2 space group). In Trx pH 9.0/7.0 (adduct formed at pH 9.0, crystals grown at pH 7.0), the best crystals were obtained in 20% PEG3350, 0.2 M KCl (60 mg/mL Trx protein) and diffracted to 2.8 Å (C2 space group). In Trx pH 7.0/7.0 (adduct formed at pH 7.0, crystals grown at pH 7.0), the best crystals were obtained in 28% PEG3350, 0.2M KCl (160 mg/mL Trx protein) and diffracted to 1.85 Å resolution (P21 space group).
The solution obtained was consistent with four molecules in the crystal asymmetric unit. […] Molecules C and D were substantially rebuilt and the Tavocept-derived mesna adduct added after protein rebuilding was complete. The structure solution was supported by contiguous electron density for the entire chain trace of each molecule, landmark side chain density features matching the amino acid sequence including cysteines, absence of phi-psi violations, and final R/Rfree values in the normal range. […] For the Trx pH 9.0/8.5 structure, residual density observed near Cys69 of molecule A was modeled as a Tavocept-derived mesna adduct in a dual conformation. […]

[3] = molecular target: T3, human glutaredoxin (Grx1) (Homo sapiens, UniProt P35754); assay: X-ray crystallography of Grx1 with Tavocept-derived mesna adducts; format: binding; conditions: 40 mM Tavocept
T3 construct: 6xHis (TEV-cleavable) (N, cleaved yes); made in house; host or cells: E. coli BL21 (RIPL)
Text: Diffraction data were collected at the Advanced Light Source (ALS) (Berkeley, Calif.). […] Data was processed using the program package MosFlm as part of the ccp4 program package.
Data was indexed, integrated, scaled and merged using the program Mosflm. […] The solution was consistent with one molecule in the crystal asymmetric unit. […] The structure solution is supported by contiguous electron density for the entire chain trace of each molecule, landmark side chain density features matching the amino acid sequence including cysteines, absence of phi-psi violations and final R/Rfree values in the normal range. […] Residues Gln39 and Glu55 have missing side-chain atoms in the final structures (side chain atoms CD, CG, OE1, NE2 and CD, OE1, OE2, respectively).

bovine TrxR = molecular target: T4, bovine TrxR (Bos taurus, UniProt O62768); assay: NADPH oxidation assay, Reaction A (TrxR alone); format: biochemical; conditions: without Trx, disulfide 0.5 mM
T4 construct: purchased American Diagnostica
Description: See, Luthman M and Holmgren A. Rat liver thioredoxin and thioredoxin reductase: purification and characterization. Biochemistry 21:6628-6633 (1982). A typical assay mixture contained buffer (50 mM potassium phosphate, pH 7.0, 1 mM EDTA), NADPH (200 μM), and bovine TrxR (1.6 μg, 0.138 μM). Assays were run with and without recombinant human Trx (4.8 μM). […] All disulfides were added to reactions as 10x solutions in buffer. The total volume of each reaction was 0.1 mL. Reactions were initiated by the addition of TrxR and were incubated at 25° C. for 40 minutes. Reactions were analyzed using a Molecular Devices SpectraMax Plus UV/vis plate reader and the activity was calculated using a 4 minute linear portion of each assay.

[4] = read-out: inhibition of WT EGFR kinase activity

Sequence of WT EGFR kinase (P00533 25-1210): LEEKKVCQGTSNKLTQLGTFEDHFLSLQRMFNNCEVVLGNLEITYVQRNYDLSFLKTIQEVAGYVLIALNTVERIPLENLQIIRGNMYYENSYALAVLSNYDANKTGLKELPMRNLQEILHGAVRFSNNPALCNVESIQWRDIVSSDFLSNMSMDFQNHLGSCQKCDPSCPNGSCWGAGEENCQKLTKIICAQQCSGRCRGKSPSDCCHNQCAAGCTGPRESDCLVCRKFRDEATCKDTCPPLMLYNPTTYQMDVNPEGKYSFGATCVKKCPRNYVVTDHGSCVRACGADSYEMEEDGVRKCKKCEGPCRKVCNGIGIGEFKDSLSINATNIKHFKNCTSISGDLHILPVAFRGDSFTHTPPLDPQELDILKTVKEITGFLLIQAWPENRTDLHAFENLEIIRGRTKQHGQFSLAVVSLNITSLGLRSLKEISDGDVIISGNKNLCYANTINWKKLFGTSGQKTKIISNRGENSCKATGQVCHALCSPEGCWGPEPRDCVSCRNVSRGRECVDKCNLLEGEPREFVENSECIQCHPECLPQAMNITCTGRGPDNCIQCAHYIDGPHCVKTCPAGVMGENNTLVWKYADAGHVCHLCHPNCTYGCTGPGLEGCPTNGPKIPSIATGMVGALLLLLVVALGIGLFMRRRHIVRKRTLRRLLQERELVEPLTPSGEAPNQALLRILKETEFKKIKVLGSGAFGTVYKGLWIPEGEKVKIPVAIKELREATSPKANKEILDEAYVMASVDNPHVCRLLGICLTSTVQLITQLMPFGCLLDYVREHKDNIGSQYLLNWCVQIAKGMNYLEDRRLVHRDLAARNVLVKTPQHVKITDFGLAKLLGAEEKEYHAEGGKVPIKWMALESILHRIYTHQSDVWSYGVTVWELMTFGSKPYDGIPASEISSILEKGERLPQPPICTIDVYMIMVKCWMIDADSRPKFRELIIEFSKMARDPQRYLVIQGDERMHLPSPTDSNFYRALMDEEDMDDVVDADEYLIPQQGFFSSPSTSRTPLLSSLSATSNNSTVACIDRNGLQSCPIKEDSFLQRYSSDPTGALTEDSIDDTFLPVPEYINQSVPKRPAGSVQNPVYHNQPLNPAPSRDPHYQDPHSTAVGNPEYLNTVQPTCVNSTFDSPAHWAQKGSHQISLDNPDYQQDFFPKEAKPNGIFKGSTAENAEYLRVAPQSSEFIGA
T4 sequence (O62768 whole entry): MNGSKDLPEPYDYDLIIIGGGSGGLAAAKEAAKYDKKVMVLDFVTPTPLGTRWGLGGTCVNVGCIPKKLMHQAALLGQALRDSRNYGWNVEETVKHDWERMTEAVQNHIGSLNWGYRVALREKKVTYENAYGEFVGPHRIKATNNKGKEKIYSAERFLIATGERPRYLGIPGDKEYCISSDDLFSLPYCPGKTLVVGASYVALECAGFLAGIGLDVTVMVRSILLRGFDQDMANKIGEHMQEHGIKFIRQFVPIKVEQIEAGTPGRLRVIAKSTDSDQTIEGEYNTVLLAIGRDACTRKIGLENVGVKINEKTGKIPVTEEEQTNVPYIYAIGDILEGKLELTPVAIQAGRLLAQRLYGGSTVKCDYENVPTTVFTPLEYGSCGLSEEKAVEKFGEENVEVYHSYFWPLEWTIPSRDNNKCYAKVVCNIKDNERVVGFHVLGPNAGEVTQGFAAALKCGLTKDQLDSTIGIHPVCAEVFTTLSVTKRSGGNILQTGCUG
Sequence of RNR subunit 1 (P23921 whole entry): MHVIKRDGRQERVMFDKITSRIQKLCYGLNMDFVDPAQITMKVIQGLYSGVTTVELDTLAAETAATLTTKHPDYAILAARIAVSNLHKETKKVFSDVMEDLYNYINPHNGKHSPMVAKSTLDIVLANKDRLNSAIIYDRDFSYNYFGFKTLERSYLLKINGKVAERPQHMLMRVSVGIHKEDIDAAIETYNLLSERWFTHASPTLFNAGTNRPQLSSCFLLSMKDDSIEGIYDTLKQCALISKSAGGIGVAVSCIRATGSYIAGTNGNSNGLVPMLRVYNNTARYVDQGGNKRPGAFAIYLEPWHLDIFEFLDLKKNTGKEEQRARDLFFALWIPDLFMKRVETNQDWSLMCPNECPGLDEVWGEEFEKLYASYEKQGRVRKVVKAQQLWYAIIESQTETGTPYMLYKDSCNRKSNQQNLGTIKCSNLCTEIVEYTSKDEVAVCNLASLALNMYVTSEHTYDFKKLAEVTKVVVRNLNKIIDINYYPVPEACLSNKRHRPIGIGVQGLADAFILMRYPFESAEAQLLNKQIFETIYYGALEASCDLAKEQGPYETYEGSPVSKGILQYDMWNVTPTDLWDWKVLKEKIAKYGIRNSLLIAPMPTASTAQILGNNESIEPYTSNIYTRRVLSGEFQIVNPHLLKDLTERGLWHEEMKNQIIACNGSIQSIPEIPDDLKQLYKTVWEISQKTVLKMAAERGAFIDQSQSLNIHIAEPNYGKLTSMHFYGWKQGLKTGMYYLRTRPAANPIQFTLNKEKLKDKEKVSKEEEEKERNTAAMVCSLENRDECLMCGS
T1 sequence (P10599 whole entry): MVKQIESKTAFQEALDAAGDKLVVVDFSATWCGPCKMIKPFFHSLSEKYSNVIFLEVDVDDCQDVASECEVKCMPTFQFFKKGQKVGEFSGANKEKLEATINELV
T3 sequence (P35754 whole entry): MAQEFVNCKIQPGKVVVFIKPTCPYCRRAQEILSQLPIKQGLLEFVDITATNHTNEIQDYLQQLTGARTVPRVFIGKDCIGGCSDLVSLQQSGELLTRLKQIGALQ

SMILES: O=S(=O)([O-])CCSSCCS(=O)(=O)[O-].[Na+].[Na+] [Tavocept, disodium 2,2′-dithio-bis-ethane sulfonate]
- number of Tavocept-derived mesna adducts on RNR1 cysteine residues (RNR subunit 1): ≤ 8
- effect on paclitaxel-induced hyperpolymerization of MTP [1]: normalizes
- inhibition of paclitaxel promoted microtubule protein polymerization ([1]; 12 mM Tavocept, paclitaxel 10 μM): approximately 50%
- Tavocept concentration giving final polymerization equal to GTP control ([1]; MTP exposed to paclitaxel): ≥ 6 mM
- Tavocept concentration inhibiting paclitaxel (10 μM) promoted hyperpolymerization ([1]; paclitaxel 10 μM): > 1 mM
- Tavocept concentration giving net polymerization equivalent to GTP/MgCl2 only control ([1]; paclitaxel/GTP/MgCl2 10 μM/1 mM/1 mM): 6 to 8 mM
- microtubules visible on electron microscopy grids ([1]; preincubated 20 minutes on ice, with and without paclitaxel, qualitative): reduction in the abundance of microtubules
- effect on GTP-catalyzed microtubule protein polymerization ([1]; preincubated with microtubule protein on ice 20 minutes, 37° C.): dose-dependent inhibitory effect; also recorded: inhibit GTP-catalyzed polymerization; also recorded: concentration dependent manner
- mesna adduct on thioredoxin fragment CMPTFQFFK (thioredoxin): Cys73-mesna adduct
- potentiation of Erlotinib inhibition of WT EGFR kinase activity (WT EGFR kinase; 10 μM ATP): slightly potentiated
- inhibition of WT EGFR kinase (WT EGFR kinase; 100 μM ATP, physiological concentrations (<20 mM)): did not notably inhibit
- IC50 (WT EGFR kinase; IC50 on WT EGFR kinase activity, 10 μM ATP): 24.3 ± 3.7 mM
- IC50 (WT EGFR kinase; IC50 on WT EGFR kinase activity, 100 μM ATP): ≥ 40 mM
- IC50 (WT EGFR kinase; read-out: IC50 on WT EGFR kinase activity, 10 μM ATP): 24.3 mM
- inhibition at 10000 µM (WT EGFR kinase; [4]): 39%
- inhibition at 20000 µM (WT EGFR kinase; [4]): 44%
- Tavocept-derived mesna adduct sites on Trx ([2]; Trx pH 7.0/7.0 structure): clearly visible on Cys69 in both molecules A and B
- Tavocept-derived mesna adduct sites on Trx ([2]; Trx pH 9.0/7.0 structure): clearly visible on both Cys69 and Cys62 in both molecules A and B
- Tavocept-derived mesna adduct sites on Trx ([2]; Trx pH 9.0/8.5 structure): clearly visible on Cys69 in both molecules A and B
- Tavocept-derived mesna adduct sites on Grx [3]: observed on Cys7 and Cys82
- Reduction of disulfide by TrxR alone (bovine TrxR): did not detectably reduce
